Reference: ChEMBL document CHEMBL1201862, “PubChem BioAssay data set” (2004)
Calls of active or inactive are those of the source.

Key:
Vero [1] = experiment: cells; format: functional, cell-based; conditions: Chlorocebus sabaeus
Cytochrome P450 1A2 = target: T1, Cytochrome P450 1A2 (Homo sapiens, UniProt P05177);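 note: PubChem cytochrome P450 panel assay, CYP1A2 panel member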
T1 sequence (P05177 whole entry): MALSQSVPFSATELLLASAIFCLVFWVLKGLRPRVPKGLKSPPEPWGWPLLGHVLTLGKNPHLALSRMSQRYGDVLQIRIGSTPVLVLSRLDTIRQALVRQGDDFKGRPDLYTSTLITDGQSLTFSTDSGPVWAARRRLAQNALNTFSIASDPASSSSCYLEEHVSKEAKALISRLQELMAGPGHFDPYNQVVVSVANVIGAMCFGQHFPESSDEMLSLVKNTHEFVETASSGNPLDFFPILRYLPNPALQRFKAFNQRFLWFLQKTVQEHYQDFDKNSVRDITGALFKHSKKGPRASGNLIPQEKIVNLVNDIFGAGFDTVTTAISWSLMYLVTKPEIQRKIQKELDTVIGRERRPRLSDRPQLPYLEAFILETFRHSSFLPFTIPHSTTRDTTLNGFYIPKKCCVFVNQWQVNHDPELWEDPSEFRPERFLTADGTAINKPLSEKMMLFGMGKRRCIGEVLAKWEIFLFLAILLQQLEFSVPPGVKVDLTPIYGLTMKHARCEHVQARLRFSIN

[2] = target: T2, Corticotropin-releasing factor receptor 2/Corticotropin-releasing factor-binding protein (Homo sapiens, UniProt P24387+Q13324); experiment: activators of CRF receptor 2 with binding protein – uHTS hits, confirmation (AID 602473); format: functional; conditions: read-out: EC50_Mean
T2 sequence (Q13324 whole entry): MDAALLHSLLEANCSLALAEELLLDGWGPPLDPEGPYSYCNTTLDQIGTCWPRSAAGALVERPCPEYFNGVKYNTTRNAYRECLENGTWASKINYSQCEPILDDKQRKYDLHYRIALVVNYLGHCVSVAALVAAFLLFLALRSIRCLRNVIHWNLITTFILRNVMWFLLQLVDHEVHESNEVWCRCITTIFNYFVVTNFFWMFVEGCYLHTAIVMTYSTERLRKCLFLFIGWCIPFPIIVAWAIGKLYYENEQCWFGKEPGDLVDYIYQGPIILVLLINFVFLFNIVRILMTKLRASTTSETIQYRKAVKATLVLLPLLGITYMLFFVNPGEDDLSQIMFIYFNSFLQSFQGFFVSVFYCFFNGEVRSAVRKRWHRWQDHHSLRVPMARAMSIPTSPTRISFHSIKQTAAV
T2 sequence (P24387 whole entry): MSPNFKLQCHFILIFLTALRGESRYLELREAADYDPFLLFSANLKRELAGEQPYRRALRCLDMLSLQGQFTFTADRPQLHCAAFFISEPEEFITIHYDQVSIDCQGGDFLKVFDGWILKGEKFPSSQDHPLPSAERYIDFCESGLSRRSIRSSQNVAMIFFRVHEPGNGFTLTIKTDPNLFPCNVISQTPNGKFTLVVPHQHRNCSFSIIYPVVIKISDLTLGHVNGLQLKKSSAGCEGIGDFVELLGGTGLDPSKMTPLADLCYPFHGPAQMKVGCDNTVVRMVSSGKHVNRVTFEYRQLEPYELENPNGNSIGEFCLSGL

Vero [3] = experiment: cells; format: functional; conditions: Chlorocebus sabaeus
cells [4] = experiment: cells
[5] = HEp-2 cell cytotoxicity, dose response, cytotoxicity control for RSV inhibitor project, HTS (AID 2410); format: functional; conditions: human respiratory syncytial virus
[6] = cytotoxicity in HEK-293T cells, dose response, cytotoxicity control for BCR NF-kB inhibitor project, luminescence, B-cell screen hits (AID 489021); format: functional, cell-based;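 note: HEK-293T cells carrying an NF-kB luciferase reporter; cells exposed to compound for about 14 hours before viability readout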
Prothrombin = Prothrombin (Homo sapiens, UniProt P00734); experiment: Thrombin 1536 HTS Dose Response Confirmation. [Related pubchem assays: 1046 (Thrombin 1536 HTS; hits were confirmed in this assay)]; format: functional
[7] = target: Ras and Rab interactor 1/Tyrosine-protein kinase ABL1 (Homo sapiens, UniProt P00519+Q13671); format: functional;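 note: biochemical TR-FRET dose-response test measuring inhibition of binding between Rin1 and Abl proteins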
Chain of Ras and Rab interactor 1/Tyrosine-protein kinase ABL1 (P00519 whole entry): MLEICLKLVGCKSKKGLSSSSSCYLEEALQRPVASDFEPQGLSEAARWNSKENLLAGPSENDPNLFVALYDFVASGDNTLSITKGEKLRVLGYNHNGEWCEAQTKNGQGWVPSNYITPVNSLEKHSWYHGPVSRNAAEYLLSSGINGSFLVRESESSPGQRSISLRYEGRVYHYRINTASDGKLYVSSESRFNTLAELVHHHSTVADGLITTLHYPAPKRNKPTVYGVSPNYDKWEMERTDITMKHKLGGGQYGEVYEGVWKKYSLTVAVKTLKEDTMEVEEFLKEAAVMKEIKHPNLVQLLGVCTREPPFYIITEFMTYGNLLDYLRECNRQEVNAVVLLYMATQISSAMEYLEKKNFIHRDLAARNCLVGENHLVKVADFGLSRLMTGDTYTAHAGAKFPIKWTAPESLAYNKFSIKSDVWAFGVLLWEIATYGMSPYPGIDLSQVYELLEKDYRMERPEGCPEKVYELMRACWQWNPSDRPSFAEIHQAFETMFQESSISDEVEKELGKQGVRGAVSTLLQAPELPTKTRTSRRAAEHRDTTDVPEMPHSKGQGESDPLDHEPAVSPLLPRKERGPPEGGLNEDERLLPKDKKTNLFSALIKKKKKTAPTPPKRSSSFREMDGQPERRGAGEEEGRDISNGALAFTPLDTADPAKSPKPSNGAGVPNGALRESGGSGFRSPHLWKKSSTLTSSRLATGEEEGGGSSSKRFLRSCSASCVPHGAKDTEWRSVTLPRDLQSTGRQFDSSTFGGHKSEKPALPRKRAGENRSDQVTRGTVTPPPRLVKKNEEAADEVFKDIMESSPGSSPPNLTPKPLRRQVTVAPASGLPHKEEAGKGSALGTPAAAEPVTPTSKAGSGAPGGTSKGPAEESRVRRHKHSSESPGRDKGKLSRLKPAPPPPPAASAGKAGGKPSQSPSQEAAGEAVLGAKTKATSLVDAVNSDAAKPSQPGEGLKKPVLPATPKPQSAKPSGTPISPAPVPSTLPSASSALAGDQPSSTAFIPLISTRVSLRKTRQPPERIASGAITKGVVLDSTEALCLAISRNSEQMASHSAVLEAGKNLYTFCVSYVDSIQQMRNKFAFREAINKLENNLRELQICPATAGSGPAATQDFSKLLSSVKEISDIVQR
Chain of Ras and Rab interactor 1/Tyrosine-protein kinase ABL1 (Q13671 whole entry): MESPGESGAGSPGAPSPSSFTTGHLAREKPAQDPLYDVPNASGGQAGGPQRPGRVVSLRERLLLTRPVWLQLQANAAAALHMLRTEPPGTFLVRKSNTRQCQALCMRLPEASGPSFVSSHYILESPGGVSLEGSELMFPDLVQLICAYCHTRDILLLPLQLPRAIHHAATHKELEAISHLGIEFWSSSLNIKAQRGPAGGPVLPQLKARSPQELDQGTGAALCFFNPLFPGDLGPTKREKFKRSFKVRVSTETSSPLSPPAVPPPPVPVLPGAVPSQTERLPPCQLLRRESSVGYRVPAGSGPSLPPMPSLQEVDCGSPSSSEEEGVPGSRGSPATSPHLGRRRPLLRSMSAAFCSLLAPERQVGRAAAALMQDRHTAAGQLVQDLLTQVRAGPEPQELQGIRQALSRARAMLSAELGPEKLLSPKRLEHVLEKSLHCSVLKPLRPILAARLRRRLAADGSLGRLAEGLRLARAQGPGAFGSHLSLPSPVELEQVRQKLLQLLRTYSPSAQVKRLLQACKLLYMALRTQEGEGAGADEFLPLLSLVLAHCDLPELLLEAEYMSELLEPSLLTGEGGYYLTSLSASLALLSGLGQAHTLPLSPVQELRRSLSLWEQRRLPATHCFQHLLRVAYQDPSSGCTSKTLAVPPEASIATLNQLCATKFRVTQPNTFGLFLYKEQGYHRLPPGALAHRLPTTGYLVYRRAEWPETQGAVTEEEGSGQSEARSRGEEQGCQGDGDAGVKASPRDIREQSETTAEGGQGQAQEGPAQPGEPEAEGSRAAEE

[8] = target: T3, Short transient receptor potential channel 4 (Mus musculus, UniProt Q9QUQ5); experiment: mouse TRPC4 channel activators, dose response, cell-based, HEK293 TRPC4/mu-opioid, Fluo-4 calcium (AID 434937); format: functional
T3 sequence (Q9QUQ5 whole entry): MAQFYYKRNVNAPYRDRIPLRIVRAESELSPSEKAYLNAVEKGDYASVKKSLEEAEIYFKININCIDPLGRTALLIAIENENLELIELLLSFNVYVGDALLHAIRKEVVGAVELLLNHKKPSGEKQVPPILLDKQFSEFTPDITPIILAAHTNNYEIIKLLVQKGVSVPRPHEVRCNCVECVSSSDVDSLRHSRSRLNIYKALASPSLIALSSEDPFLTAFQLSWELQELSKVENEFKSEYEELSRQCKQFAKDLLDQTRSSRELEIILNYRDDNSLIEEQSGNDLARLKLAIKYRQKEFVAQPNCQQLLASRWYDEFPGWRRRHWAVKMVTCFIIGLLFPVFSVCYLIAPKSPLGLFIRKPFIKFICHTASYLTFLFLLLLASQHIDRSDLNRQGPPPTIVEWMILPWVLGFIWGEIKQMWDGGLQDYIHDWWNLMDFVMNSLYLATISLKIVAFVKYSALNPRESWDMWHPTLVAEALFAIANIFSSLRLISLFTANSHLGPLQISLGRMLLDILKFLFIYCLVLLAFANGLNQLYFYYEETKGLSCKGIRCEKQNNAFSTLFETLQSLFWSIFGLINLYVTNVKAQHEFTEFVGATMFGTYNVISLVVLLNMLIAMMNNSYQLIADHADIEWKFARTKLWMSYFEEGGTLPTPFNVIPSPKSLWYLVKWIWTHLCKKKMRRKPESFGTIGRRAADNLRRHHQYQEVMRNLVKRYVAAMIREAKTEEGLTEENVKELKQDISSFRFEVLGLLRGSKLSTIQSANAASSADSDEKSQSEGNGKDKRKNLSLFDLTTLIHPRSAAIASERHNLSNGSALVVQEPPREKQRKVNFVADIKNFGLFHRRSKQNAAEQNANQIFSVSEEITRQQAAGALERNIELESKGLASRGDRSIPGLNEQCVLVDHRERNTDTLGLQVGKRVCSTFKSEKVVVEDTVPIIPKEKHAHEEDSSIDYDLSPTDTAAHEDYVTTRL

[9] = tested on: Streptococcus sp. 'group A'; experiment: growth inhibition of control SK(-) GAS strain, dose response, counter-screen for streptokinase expression inhibitor project, luminescence, kanamycin, BacTiterGlo, confirmation (AID 1900); format: functional, organism-based
Streptococcus = experiment: Group A Streptococcus viability loss, dose response, counter-screen for streptokinase expression inhibitor project, luminescence, BacTiterGlo (AID 1915); format: functional, organism-based;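 note: potency for reduction of bacterial viability or growth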
Beta-galactosidase = Beta-galactosidase (Escherichia coli, UniProt Q8VNN2); experiment: beta-galactosidase enzyme inhibitors and activators, dose response, artefact control for CCR6 antagonist project, biochemical, E. coli enzyme, set 3 (AID 504712); format: functional
Chain of Beta-galactosidase (Q8VNN2 whole entry): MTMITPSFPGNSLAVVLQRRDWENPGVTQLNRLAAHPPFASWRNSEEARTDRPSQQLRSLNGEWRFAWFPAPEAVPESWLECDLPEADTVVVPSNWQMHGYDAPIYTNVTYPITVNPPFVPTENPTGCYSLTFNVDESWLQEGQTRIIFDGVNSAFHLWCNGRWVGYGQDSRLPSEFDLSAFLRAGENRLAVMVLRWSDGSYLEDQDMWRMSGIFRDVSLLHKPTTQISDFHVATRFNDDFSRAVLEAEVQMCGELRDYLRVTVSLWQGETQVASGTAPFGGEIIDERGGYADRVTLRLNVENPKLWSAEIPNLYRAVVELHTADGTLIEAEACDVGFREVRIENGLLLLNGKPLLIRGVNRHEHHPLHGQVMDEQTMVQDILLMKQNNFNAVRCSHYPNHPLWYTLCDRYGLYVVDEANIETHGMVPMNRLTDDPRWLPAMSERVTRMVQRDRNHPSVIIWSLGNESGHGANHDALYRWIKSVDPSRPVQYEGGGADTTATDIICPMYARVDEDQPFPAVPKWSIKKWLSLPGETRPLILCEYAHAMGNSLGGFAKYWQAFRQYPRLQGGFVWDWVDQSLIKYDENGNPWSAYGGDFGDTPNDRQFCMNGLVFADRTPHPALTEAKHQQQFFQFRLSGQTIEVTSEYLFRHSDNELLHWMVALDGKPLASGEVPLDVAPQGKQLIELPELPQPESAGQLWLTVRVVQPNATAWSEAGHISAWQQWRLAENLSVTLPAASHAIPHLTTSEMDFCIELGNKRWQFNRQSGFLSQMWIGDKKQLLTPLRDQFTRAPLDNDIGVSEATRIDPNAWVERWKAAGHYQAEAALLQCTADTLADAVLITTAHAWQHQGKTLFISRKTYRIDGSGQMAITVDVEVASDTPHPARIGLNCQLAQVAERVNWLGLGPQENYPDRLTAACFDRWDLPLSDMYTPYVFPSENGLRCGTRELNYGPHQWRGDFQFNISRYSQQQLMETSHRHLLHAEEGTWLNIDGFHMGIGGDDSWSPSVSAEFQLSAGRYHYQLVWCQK

[10] = ADAM10 protease inhibitors, dose response, selectivity assay for ADAM17 exosite inhibitor project, biochemical, FRET peptide substrate, recombinant human ADAM10 (AID 743259);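 note: ADAM10 enzyme cleaving a FRET peptide substrate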
[11] = target: Disintegrin and metalloproteinase domain-containing protein 17 (Homo sapiens, UniProt P78536); experiment: exosite inhibitors of ADAM17, dose response, biochemical (AID 743260)
Chain of Disintegrin and metalloproteinase domain-containing protein 17 (P78536 whole entry, the tested form may be a part): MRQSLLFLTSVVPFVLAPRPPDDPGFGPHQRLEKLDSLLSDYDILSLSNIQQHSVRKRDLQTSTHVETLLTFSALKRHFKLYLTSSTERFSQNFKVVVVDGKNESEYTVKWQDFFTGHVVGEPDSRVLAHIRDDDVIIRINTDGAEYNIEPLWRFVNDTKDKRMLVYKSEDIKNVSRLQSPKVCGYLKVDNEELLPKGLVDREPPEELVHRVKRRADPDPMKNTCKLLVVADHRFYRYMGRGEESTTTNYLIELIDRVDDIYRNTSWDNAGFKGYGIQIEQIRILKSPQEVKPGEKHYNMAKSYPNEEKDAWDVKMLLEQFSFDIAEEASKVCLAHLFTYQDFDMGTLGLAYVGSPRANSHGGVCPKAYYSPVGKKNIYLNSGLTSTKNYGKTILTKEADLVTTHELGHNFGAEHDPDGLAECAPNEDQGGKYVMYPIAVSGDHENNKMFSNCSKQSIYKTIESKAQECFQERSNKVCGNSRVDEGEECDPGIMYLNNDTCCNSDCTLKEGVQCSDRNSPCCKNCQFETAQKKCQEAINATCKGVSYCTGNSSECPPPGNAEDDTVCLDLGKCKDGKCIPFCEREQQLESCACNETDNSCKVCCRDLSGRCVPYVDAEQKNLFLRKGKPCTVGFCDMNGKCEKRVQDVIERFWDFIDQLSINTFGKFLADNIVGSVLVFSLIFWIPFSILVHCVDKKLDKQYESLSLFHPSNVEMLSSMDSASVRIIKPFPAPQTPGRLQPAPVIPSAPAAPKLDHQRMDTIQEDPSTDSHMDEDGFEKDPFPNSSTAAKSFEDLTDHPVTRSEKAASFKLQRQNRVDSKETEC

Beta Lactamase = Beta Lactamase (Pseudomonas aeruginosa, UniProt Q932Y6); experiment: beta-lactamase reporter inhibitor potency, dose response, artefact control for TLR9-MyD88 binding inhibitor project, BLA reporter cells, FRET fluorescence (AID 588341); format: cell-based;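 note: cell based assay in CHO-K1 cells stably expressing beta-lactamase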
Chain of Beta Lactamase (Q932Y6 whole entry, the tested form may be a part): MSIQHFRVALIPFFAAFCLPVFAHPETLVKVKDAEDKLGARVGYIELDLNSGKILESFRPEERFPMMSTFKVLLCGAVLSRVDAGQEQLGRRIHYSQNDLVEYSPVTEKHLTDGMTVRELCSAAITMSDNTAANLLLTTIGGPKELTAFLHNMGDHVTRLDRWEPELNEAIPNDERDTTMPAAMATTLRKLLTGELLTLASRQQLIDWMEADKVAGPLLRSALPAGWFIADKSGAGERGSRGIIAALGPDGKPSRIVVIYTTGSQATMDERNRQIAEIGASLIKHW

CHO = experiment: cytotoxicity in TLR9-MyD88 CHO cells, dose response, cytotoxicity control for TLR9-MyD88 binding inhibitor project, cell-based, luminescence (AID 588339); format: functional, hamster; conditions: Cricetulus griseus;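 note: CHO cells stably coexpressing TLR9 and MyD88 fusions from primary screen; compound exposure lasted 48 hours before viability readout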
[12] = cytotoxicity toward NIH3T3 fibroblasts, dose response, counter-screen, cell-based, ATP luminescence, mouse fibroblasts (AID 2010); format: functional;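 note: cells exposed to compound for about 90 hours before reading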
Galanin receptor type 3 = target: T4, Galanin receptor type 3 (Homo sapiens, UniProt O60755); experiment: Fluorescence-based cell-based primary high throughput dose response assay to identify antagonists of the Galanin Receptor 3 (GalR3).; format: functional
T4 sequence (O60755 whole entry): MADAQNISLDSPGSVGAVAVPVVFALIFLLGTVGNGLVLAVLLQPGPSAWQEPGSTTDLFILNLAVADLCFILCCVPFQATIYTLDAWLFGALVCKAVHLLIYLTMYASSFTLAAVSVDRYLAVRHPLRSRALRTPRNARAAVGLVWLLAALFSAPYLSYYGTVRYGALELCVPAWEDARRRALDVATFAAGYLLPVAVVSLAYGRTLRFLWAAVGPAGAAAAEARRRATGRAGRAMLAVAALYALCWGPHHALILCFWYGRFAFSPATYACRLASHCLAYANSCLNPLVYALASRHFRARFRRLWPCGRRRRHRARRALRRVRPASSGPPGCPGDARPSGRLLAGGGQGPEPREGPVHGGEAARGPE

cells [13] = format: functional, cell-based; conditions: HEK-CNG
[14] = inhibitors of intracellular T. cruzi replication, confirmation, NIH3T3 host cells, beta-gal luminescence (AID 2044); format: functional, cell-based;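 note: intracellular parasites grown in NIH/3T3 mouse fibroblasts as host cells; luminescent beta-galactosidase reporter signal from transgenic T. cruzi replicating inside host cells; inhibitors lower the luminescence signal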

c1nnc(NCNc2nncs2)s1
IC50 (Vero [1]): > 25 µM (active) | AC50 (Cytochrome P450 1A2): 2 µM (inconclusive) | EC50 [2]: > 53 µM (inactive) | CC50 (Vero [3]): > 25 µM (active)

Cc1cc(NC(=O)COC(=O)c2c(Cl)cccc2Cl)no1
IC50 (Vero [1]): > 25 µM (active) | IC50 (cells [4]): 21.8 µM (active) | CC50 [5]: > 50 µM (active)

Cc1ccc2nc(NC(=O)CSCC(=O)OCC(=O)c3ccc(Br)cc3)sc2c1
IC50 [6]: > 80 µM (inactive) | IC50 (Prothrombin): 0.0393 µM (active)

COc1ccc(CC(=O)Oc2ccc(C)cc2Br)cc1OC
IC50 [7]: 6.87 µM (active)

Cc1ccc(C(=O)NNC(=S)NC(=O)c2ccccc2)cc1
IC50 (Vero [1]): 12 µM (active) | EC50 [8]: 2.66 µM (active) | EC50 [9]: 1.47 µM (active) | EC50 (Streptococcus): 4.44 µM (active) | IC50 (Beta-galactosidase): > 66.6 µM (inactive) | CC50 (Vero [3]): 24.8 µM (active)

CC12CCC(=O)N1C(C(=O)N1CCN(S(=O)(=O)c3ccc(Br)cc3Cl)CC1)CS2 (stereo not drawn)
IC50 [7]: 17 µM (inactive)

O=C(OCc1cnc(Cl)s1)c1cccc(Cl)c1Cl
IC50 [10]: > 69.6 µM (inactive) | IC50 [11]: > 69.6 µM (inactive)

Cn1c(-c2c(N)n(-c3ccccc3)c3nc4ccccc4nc23)nc2ccccc21
IC50 (Beta Lactamase): 3.85 µM (active) | IC50 (CHO): > 49.7 µM (inactive)

COc1cc(/C=C(\C#N)c2ccccn2)ccc1OCc1ccccc1
IC50 [10]: > 69.5 µM (inactive) | IC50 [11]: > 69.5 µM (inactive)

CC1(C)CC2CC(C)(CN2S(=O)(=O)c2ccc(C(=O)Nc3ccc(S(=O)(=O)N4CCOCC4)cc3)cc2)C1 (stereo not drawn)
EC50 [12]: > 60 µM (not active) | IC50 (Galanin receptor type 3): 0.96 µM (active) | EC50 (cells [13]): > 29.9 µM (inactive) | IC50 [6]: > 80 µM (inactive) | EC50 [14]: 1.83 µM (active)
